# Test results: patent US20090155209A1, “NOVEL MACROCYCLIC INHIBITORS OF HEPATITIS C VIRUS REPLICATION” (priority 2007, published 2009)
# Values joined by “and” are separate entries in the source; they are usually repeats but may differ in a detail not shown here. Equal values may be shown once. Read-outs that look alike come from different tables or passages of the source.
# Columns and labels:
# [1] = Single ascending dose study, fasted and fed: safety and non-compartmental plasma PK; assay type: in vivo, healthy volunteers (human); settings: for median percentage change in AUC0-inf between the fasted and fed conditions: 10 subjects
# Description: A single ascending dose (SAD) study of the compound 100 was conducted in healthy volunteers. The compound 100 was administered as monotherapy both with and without food. The safety and pharmacokinetic profile of the single dose of the compound 100 was assessed.
# Interim, blinded data were used for Pharmacokinetic (PK) study relating to food effects. With the exception of the 400 mg cohort, eight subjects were studied at each dose (single doses of 100, 200, or 800 mg of the sodium salt of the compound 100, which may be referred to herein as ITMN-191, administered in the fasting state). In the 400 mg cohort, ten subjects received single 400 mg doses of ITMN-191 under both fasted and fed conditions with a 5-day washout period between dosing. In the 100 mg cohort, subjects were sampled within 1 hour before dosing and at 0.5, 1, 1.5, 2, 2.5, 3, 4, 6, 8, 12, 18, 24, 32 and 48 hours after dosing. For subsequent cohorts, subjects were sampled within 1 hour before dosing and at 0.25, 0.5, 1, 1.5, 2, 2.5, 3, 4, 6, 8, 12, 18, 24, and 32 hours after dosing. Nominal (not actual) sampling times were used for the analysis. PK samples were analyzed using liquid chromatography-tandem mass spectrometry (LC/MS/MS with API 4000 mass spectrometer) following solid-phase extraction. The upper and lower limits of quantitation (ULOQ and LLOQ) are 100 and 0.01 ng/mL, respectively.
# Pharmacokinetic parameter estimates were calculated using non-compartmental methods (implemented using Microsoft Excel®). Half-lives were determined by visual inspection of the log concentration-time plots to choose the terminal phase (minimum of three detectable observations). Using linear regression of the chosen terminal phase observations, elimination rate constants were calculated as the negative slope of the regression line and half-life as the natural log of 2 divided by the elimination rate constant.
# Ten subjects received single 1600 mg doses of ITMN-191 under both fasted and fed conditions with a 5-day washout period between dosing. For each condition, subjects were sampled within 1 hour before dosing and at 0.25, 0.5, 1, 1.5, 2, 2.5, 3, 4, 6, 8, 12, 18, 24, and 32 hours after dosing. Pharmacokinetic parameter estimates were calculated using non-compartmental methods. Half-life (t1/2) was determined by visual inspection of the log concentration-time plots to choose the terminal phase (minimum of three detectable observations). Using linear regression of the chosen terminal phase observations, elimination rate constants were calculated as the negative slope and half-life as the natural log of 2 divided by the elimination rate constant.
# [2] = Compartmental PK model fitted to plasma data of the 400 mg fed cohort; assay type: in vivo, healthy volunteers (human); settings: median, compartmental PK parameter
# Description: The compartmental model was constructed to fit the PK data from the 400 mg, fed cohort only. Candidate PK models were fit to plasma data using weighted, non-linear regression implemented in Adapt 5. (1, 2) Each subjects' data were fit separately for a total of 10 fitted profiles. Model discrimination was accomplished according to the “Rule of Parsimony” based on Akaike's Information Criterion. (3, 4)
# The most robust fit to the data was obtained using a three-compartment model (one absorptive, two distributive) with first order absorption and elimination. […] No a priori assumptions regarding the number of phases were made; the fit of the observed data and the AIC were used to guide the selection of a one, two, or three-phase absorption.
# [3] = Simulated steady-state plasma and liver profiles: predicted AUC0-24, Cavg, % Time>EC90, Ctrough,liver/EC90; parameters: species or system human; settings: 8 or 12 hour dose interval
# Description: Fitted parameters were used to compute predicted steady-state AUC0-24 and integrated average steady-state concentrations (Cavg) in plasma and in liver. Three hypothetical liver to plasma ratios (LPR) were considered given the variability seen in various animal species: 8 to 1, 30 to 1, and 100 to 1. The LPR seen in rats was approximately 8:1, LPR in dogs was approximately 25-40:1 and LPR in monkeys was approximately 80-125:1.
# Using ADAPT 5, simulated plasma profiles were generated using individual subject fitted parameters and two different dosing regimens, 800 mg Q12H and 500 mg Q8H, dosed to steady-state.
# By simulating plasma concentration profiles at steady-state, it is possible to predict ITMN-191 concentrations in liver and then index these to viral sensitivity. Summary statistics for the percentage of a dosing interval for which predicted liver concentrations remain above the EC90 (% Time>EC90) and the ratio of predicted trough concentration in the liver to the EC90 (Ctrough, liver/EC90) are provided in Table 12.
# HCV = assay: EC90 (viral sensitivity); assay type: cell-based, hepatitis C virus (HCV); settings: Hepatitis C virus
# [4] = individual subjects, single 1600 mg dose, Fasted
# [5] = individual subjects, single 1600 mg dose, Fed
smiles,measurement,setting,value
CC(C)(C)OC(=O)N[C@H]1CCCCC/C=C\[C@@H]2C[C@@]2(C(=O)NS(=O)(=O)C2CC2)NC(=O)[C@@H]2C[C@@H](OC(=O)N3Cc4cccc(F)c4C3)CN2C1=O [ITMN-191],AUC0-inf,"[1]; human, plasma, oral, 1600 mg, Harmonic Mean of 10 subjects, single 1600 mg dose, Fed, read-out: AUC0-inf",949 ng·h/mL
same,Cmax,"[1]; human, plasma, oral, 1600 mg, Harmonic Mean of 10 subjects, single 1600 mg dose, Fed, read-out: Cmax",326 ng/mL
same,half-life,"[1]; human, plasma, oral, 1600 mg, Harmonic Mean of 10 subjects, single 1600 mg dose, Fed, read-out: t½ (converted)",2.43 h
same,AUC0-inf,"[1]; human, plasma, oral, 1600 mg, Mean of 10 subjects, single 1600 mg dose, Fasted, read-out: AUC0-inf",691 ng·h/mL
same,Cmax,"[1]; human, plasma, oral, 1600 mg, Mean of 10 subjects, single 1600 mg dose, Fasted, read-out: Cmax",622 ng/mL
same,half-life,"[1]; human, plasma, oral, 1600 mg, Mean of 10 subjects, single 1600 mg dose, Fasted, read-out: t½ (converted)",2.48 h
same,AUC0-inf,"[1]; human, plasma, oral, 1600 mg, Mean of 10 subjects, single 1600 mg dose, Fed, read-out: AUC0-inf",1070 ng·h/mL
same,Cmax,"[1]; human, plasma, oral, 1600 mg, Mean of 10 subjects, single 1600 mg dose, Fed, read-out: Cmax",528 ng/mL
same,half-life,"[1]; human, plasma, oral, 1600 mg, Mean of 10 subjects, single 1600 mg dose, Fed, read-out: t½ (converted)",2.56 h
same,AUC0-inf,"[1]; human, plasma, oral, 1600 mg, Median of 10 subjects, single 1600 mg dose, Fasted, read-out: AUC0-inf",737 ng·h/mL
same,Cmax,"[1]; human, plasma, oral, 1600 mg, Median of 10 subjects, single 1600 mg dose, Fasted, read-out: Cmax",685 ng/mL
same,Tmax,"[1]; human, plasma, oral, 1600 mg, Median of 10 subjects, single 1600 mg dose, Fasted, read-out: Tmax",0.5 h
same,half-life,"[1]; human, plasma, oral, 1600 mg, Median of 10 subjects, single 1600 mg dose, Fasted, read-out: t½ (converted)",2.21 h
same,AUC0-inf,"[1]; human, plasma, oral, 1600 mg, Median of 10 subjects, single 1600 mg dose, Fed, read-out: AUC0-inf",1120 ng·h/mL
same,Cmax,"[1]; human, plasma, oral, 1600 mg, Median of 10 subjects, single 1600 mg dose, Fed, read-out: Cmax",449 ng/mL
same,Tmax,"[1]; human, plasma, oral, 1600 mg, Median of 10 subjects, single 1600 mg dose, Fed, read-out: Tmax",1.75 h
same,half-life,"[1]; human, plasma, oral, 1600 mg, Median of 10 subjects, single 1600 mg dose, Fed, read-out: t½ (converted)",2.64 h
same,half-life,"[1]; human, plasma, oral, 1600 mg, individual subjects, single 1600 mg dose, Fed, read-out: t½ (converted)",3 h
same,half-life,"[1]; human, plasma, oral, in most subjects, read-out: terminal half-life",1 to 2 h
same,AUC0-inf,[1]; [4],890 ng·h/mL and 360 ng·h/mL and 529 ng·h/mL and 507 ng·h/mL and 907 ng·h/mL and 809 ng·h/mL and 753 ng·h/mL and 652 ng·h/mL and 720 ng·h/mL and 779 ng·h/mL
same,Cmax,[1]; [4],892 ng/mL and 225 ng/mL and 548 ng/mL and 214 ng/mL and 1000 ng/mL and 860 ng/mL and 305 ng/mL and 909 ng/mL and 822 ng/mL and 442 ng/mL
same,AUC0-inf,[1]; [5],1895 ng·h/mL and 583 ng·h/mL and 939 ng·h/mL and 1116 ng·h/mL and 1225 ng·h/mL and 1209 ng·h/mL and 806 ng·h/mL and 1133 ng·h/mL and 1174 ng·h/mL
same,Cmax,[1]; [5],1510 ng/mL and 381 ng/mL and 199 ng/mL and 100 ng/mL and 444 ng/mL and 592 ng/mL and 454 ng/mL and 346 ng/mL and 760 ng/mL and 493 ng/mL
same,Tmax,[1]; [5],1.5 h and 4 h and 2 h
same,t½,[1]; [5],2.01 h and 2.65 h and 1.80 h and 3.35 h and 2.16 h and 2.63 h and 1.82 h and 2.70 h and 3.48 h
same,subjects with an increase in AUC0-inf under fed conditions,[1]; single 400 mg dose,8 of 10
same,median percentage change in AUC0-inf between the fasted and fed conditions,[1]; single 400 mg dose,26%
same,subjects with an increase in AUC0-inf under fed conditions,[1]; single 1600 mg dose,10 of 10
same,median percentage change in AUC0-inf between the fasted and fed conditions,[1]; single 1600 mg dose,54%
same,half-life,"[2]; human, plasma, oral, n = 10, read-out: T1/2,λz (converted)",1.53 h
same,Vd/F,"[2]; human, plasma, oral, n = 10, read-out: Vss/F",2950 L
same,CLt/F,[2]; n = 10,3800 L/h
same,Vc/F,[2]; n = 10,1975 L
same,accumulation associated with multiple doses,[3],negligible
same,EC90,HCV,14.1 nM and 0.0106 µg/mL
